Data from article PMC6155776, “Synthesis of Novel Pyrazinamide Derivatives Based on 3-Chloropyrazine-2-carboxamide and Their Antimicrobial Evaluation” (Molecules : A Journal of Synthetic Chemistry and Natural …, 2017).
In brackets after ≈: the same amount, converted by molar mass. Read-outs that look alike come from different tables or passages of the source.

How the values were obtained:
Assay in all cases: microbe, parasite or virus in culture
Type in all cases: cell-based
M. tbc PRAHA 131 = details: Mycobacterium tuberculosis, read-out: Minimum inhibitory concentrations M. tbc PRAHA 131
M. tbc PRAHA 1 = details: Mycobacterium tuberculosis, read-out: Minimum inhibitory concentrations M. tbc PRAHA 1
M. tbc 9449/2007 = details: Mycobacterium tuberculosis, read-out: Minimum inhibitory concentrations M. tbc 9449/2007
M. tbc PRAHA 4 = details: Mycobacterium tuberculosis, read-out: Minimum inhibitory concentrations M. tbc PRAHA 4
M. tbc 234/2005 = details: Mycobacterium tuberculosis, read-out: Minimum inhibitory concentrations M. tbc 234/2005
[1] = system: four MDR-TB strains and one XDR-TB strain; details: Mycobacterium tuberculosis, read-out: MIC against resistant M. tuberculosis strains

SMILES	MIC (M. tbc PRAHA 131; PRAHA131, 336 h) [µM]	MIC (M. tbc PRAHA 131; PRAHA131, 504 h) [µM]	MIC (M. tbc PRAHA 1; PRAHA1, 336 h) [µM]	MIC (M. tbc PRAHA 1; PRAHA1, 504 h) [µM]	MIC (M. tbc 9449/2007; 9449/2007, 336 h) [µM]	MIC (M. tbc 9449/2007; 9449/2007, 504 h) [µM]	MIC (M. tbc PRAHA 4; PRAHA4, 336 h) [µM]	MIC (M. tbc PRAHA 4; PRAHA4, 504 h) [µM]	MIC (M. tbc 234/2005; 234/2005, 336 h) [µM]	MIC (M. tbc 234/2005; 234/2005, 504 h) [µM]	MIC [1] [µM]
CO[C@H]1/C=C/O[C@@]2(C)Oc3c(C)c(O)c4c(O)c(c(/C=N/N5CCN(C)CC5)c(O)c4c3C2=O)NC(=O)/C(C)=C\C=C\[C@H](C)[C@H](O)[C@@H](C)[C@@H](O)[C@@H](C)[C@H](OC(C)=O)[C@@H]1C [RFM, rifampicin, reference compound]	> 15.6	> 15.6	> 15.6	> 15.6	> 15.6	> 15.6	> 15.6	> 15.6	> 15.6	> 15.6	
Cc1ccc(CNc2nccnc2C(N)=O)cc1 [Compound 8, 3-[(4-Methylbenzyl)amino]pyrazine-2-carboxamide]	250 (≈ 60.6 µg/mL)	250 (≈ 60.6 µg/mL)	250 (≈ 60.6 µg/mL)	250 (≈ 60.6 µg/mL)	250 (≈ 60.6 µg/mL)	250 (≈ 60.6 µg/mL)	250 (≈ 60.6 µg/mL)	250 (≈ 60.6 µg/mL)	250 (≈ 60.6 µg/mL)	250 (≈ 60.6 µg/mL)	250 (≈ 60.6 µg/mL)
NNC(=O)c1ccncc1 [INH, isoniazid, reference compound]	15.6 (≈ 2.14 µg/mL)	31.2 (≈ 4.29 µg/mL)	15.6 (≈ 2.14 µg/mL)	15.6 (≈ 2.14 µg/mL)	62.5 (≈ 8.57 µg/mL)	62.5 (≈ 8.57 µg/mL)	15.6 (≈ 2.14 µg/mL)	31.2 (≈ 4.29 µg/mL)	15.6 (≈ 2.14 µg/mL)	15.6 (≈ 2.14 µg/mL)	
NC(=O)c1nccnc1NCc1ccc(N)cc1 [Compound 9, 3-[(4-Aminobenzyl)amino]pyrazine-2-carboxamide]	62.5 (≈ 15.2 µg/mL)	125 (≈ 30.4 µg/mL)	62.5 (≈ 15.2 µg/mL)	62.5 (≈ 15.2 µg/mL)	62.5 (≈ 15.2 µg/mL)	62.5 (≈ 15.2 µg/mL)	62.5 (≈ 15.2 µg/mL)	62.5 (≈ 15.2 µg/mL)	62.5 (≈ 15.2 µg/mL)	62.5 (≈ 15.2 µg/mL)	62.5 (≈ 15.2 µg/mL)
